Activity calls are given as the source filed them. The calls are words filed in the database; no cut-off is given here.
How the values were obtained:
HCT-116 [1] = test: Induction of apoptosis in p53 knockout human HCT116 cells assessed as early apoptotic cells at 1 uM after 48 hrs by Annexin V-FITC/propidium iodide staining based assay (reference value: 2 +/- 1%); format: functional
[2] = molecular target: T1, DNA topoisomerase 1 (Homo sapiens) (UniProt P11387); test: Inhibition of topoisomerase 1 (unknown origin) assessed as attenuation of enzyme-mediated relaxation of supercoiled pBR322 DNA after 30 mins by agarose gel electrophoresis
T1 sequence (whole entry): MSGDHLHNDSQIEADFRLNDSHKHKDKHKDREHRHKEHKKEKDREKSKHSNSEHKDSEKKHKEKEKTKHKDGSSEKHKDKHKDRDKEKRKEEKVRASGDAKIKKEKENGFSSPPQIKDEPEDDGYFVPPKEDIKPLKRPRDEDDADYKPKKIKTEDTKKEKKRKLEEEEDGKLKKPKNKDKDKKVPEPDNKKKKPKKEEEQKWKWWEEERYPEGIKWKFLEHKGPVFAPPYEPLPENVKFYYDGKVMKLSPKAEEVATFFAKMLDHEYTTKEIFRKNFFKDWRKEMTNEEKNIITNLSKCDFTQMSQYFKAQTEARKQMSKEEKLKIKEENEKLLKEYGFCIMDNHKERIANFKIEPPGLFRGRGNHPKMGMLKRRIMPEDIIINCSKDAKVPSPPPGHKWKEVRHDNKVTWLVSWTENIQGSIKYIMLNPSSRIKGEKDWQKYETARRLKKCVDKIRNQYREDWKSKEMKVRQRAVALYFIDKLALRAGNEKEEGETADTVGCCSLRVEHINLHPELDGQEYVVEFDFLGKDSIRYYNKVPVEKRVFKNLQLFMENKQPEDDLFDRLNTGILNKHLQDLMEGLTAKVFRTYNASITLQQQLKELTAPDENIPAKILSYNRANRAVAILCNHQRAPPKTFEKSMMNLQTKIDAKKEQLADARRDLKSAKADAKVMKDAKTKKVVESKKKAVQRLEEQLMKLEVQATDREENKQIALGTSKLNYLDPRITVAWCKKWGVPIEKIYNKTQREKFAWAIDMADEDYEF

HCT-116 [3] = test: Induction of apoptosis in human HCT116 cells assessed as necrotic cells at 1 uM after 24 hrs by Annexin V-FITC/propidium iodide staining based assay (reference value: 2 +/- 1%); format: functional
HCT-116 [4] = test: Induction of apoptosis in human HCT116 cells assessed as late apoptotic cells at 1 uM after 24 hrs by Annexin V-FITC/propidium iodide staining based assay (reference value: 1 +/- 1%); format: functional
P388 [5] = test: Antitumor activity against mouse P388 cells transplanted in DBA2/BDF1 mouse assessed as mean life span at 30 mg/kg, ip dosed daily for 5 days relative to control; format: functional
K562/4 = test: Binding affinity to P-gp in human K562/4 cells assessed as drug accumulation at 1 uM incubated for 1 to 24 hrs by flow cytometry; format: cell-based
HCT-116 [6] = test: Induction of apoptosis in human HCT116 cells assessed as necrotic cells at 1 uM after 48 hrs by Annexin V-FITC/propidium iodide staining based assay (reference value: 2 +/- 1%); format: functional
HCT-116 [7] = test: Induction of apoptosis in p53 knockout human HCT116 cells assessed as viable cells at 1 uM after 48 hrs by Annexin V-FITC/propidium iodide staining based assay (reference value: 93 +/- 3%); format: functional
[8] = Cell cycle arrest in p53 knockout human HCT116 cells assessed as decrease in S phase at 1 uM after 24 hrs; format: functional, cell-based; settings: HCT-116
Calf thymus DNA [9] = test: Binding affinity to calf thymus DNA at 5 uM by fluorescence assay; format: nucleic-acid assay; settings: Bos taurus
HCT-116 [10] = test: Induction of apoptosis in p53 knockout human HCT116 cells assessed as early apoptotic cells at 1 uM after 24 hrs by Annexin V-FITC/propidium iodide staining based assay (reference value: 2 +/- 1%); format: functional
[11] = molecular target: T1, DNA topoisomerase 1 (Homo sapiens); test: Poisoning activity at topoisomerase 1 (unknown origin) using 3'-[32P]dGTP labelled 117bp oligonucleotide assessed as induction of DNA cleavage incubated for 20 mins by SDS-PAGE analysis
[12] = molecular target: T1, DNA topoisomerase 1 (Homo sapiens); test: Inhibition of topoisomerase 1 (unknown origin) assessed as attenuation of enzyme-mediated relaxation of supercoiled pBR322 DNA up to 1 uM after 30 mins by agarose gel electrophoresis
Calf thymus DNA [13] = test: Binding affinity to calf thymus DNA assessed as bathochromic shift at 5 uM by spectrophotometric analysis; format: nucleic-acid assay; settings: Bos taurus
HCT-116 [14] = test: Induction of apoptosis in p53 knockout human HCT116 cells assessed as late apoptotic cells at 1 uM after 48 hrs by Annexin V-FITC/propidium iodide staining based assay (reference value: 2 +/- 1%); format: functional
HCT-116 [15] = test: Induction of apoptosis in human HCT116 cells assessed as early apoptotic cells at 1 uM after 48 hrs by Annexin V-FITC/propidium iodide staining based assay (reference value: 2 +/- 1%); format: functional
HCT-116 [16] = test: Induction of apoptosis in p53 knockout human HCT116 cells assessed as necrotic cells at 1 uM after 48 hrs by Annexin V-FITC/propidium iodide staining based assay (reference value: 2 +/- 1%); format: functional
K562 = test: Binding affinity to P-gp in human K562 cells assessed as drug accumulation at 1 uM incubated for 1 to 24 hrs by flow cytometry; format: cell-based
[17] = Cell cycle arrest in human HCT116 cells assessed as accumulation in G2/M phase at 1 uM after 24 hrs; format: functional, cell-based; settings: HCT-116
HCT-116 [18] = test: Induction of apoptosis in p53 knockout human HCT116 cells assessed as late apoptotic cells at 1 uM after 24 hrs by Annexin V-FITC/propidium iodide staining based assay (reference value: 2 +/- 1%); format: functional
[19] = Cell cycle arrest in human HCT116 cells assessed as decrease in G1 phase at 1 uM after 24 hrs; format: functional, cell-based; settings: HCT-116
HCT-116 [20] = test: Induction of apoptosis in p53 knockout human HCT116 cells assessed as necrotic cells at 1 uM after 24 hrs by Annexin V-FITC/propidium iodide staining based assay (reference value: 2 +/- 1%); format: functional
[21] = Toxicity in ip dosed DBA2/BDF1 mouse transplanted with mouse P388 cells dosed daily for 5 days; format: organism-based; settings: in vivo
[22] = Cell cycle arrest in human HCT116 cells assessed as decrease in S phase at 1 uM after 24 hrs; format: functional, cell-based; settings: HCT-116
HCT-116 [23] = test: Induction of apoptosis in human HCT116 cells assessed as late apoptotic cells at 1 uM after 48 hrs by Annexin V-FITC/propidium iodide staining based assay (reference value: 1 +/- 1%); format: functional
PBL = test: Cytotoxicity against human PBL assessed as reduction in cell viability after 72 hrs by MTT assay; format: cell-based
HCT-116 [24] = test: Induction of apoptosis in p53 knockout human HCT116 cells assessed as viable cells at 1 uM after 24 hrs by Annexin V-FITC/propidium iodide staining based assay (reference value: 93 +/- 3%); format: functional
P388 [25] = test: Antitumor activity against mouse P388 cells transplanted in DBA2/BDF1 mouse assessed as mean life span at 50 mg/kg, ip dosed daily for 5 days (reference value: 9.7 +/- 1.1 day); format: functional
[26] = Cell cycle arrest in p53 knockout human HCT116 cells assessed as accumulation in G2/M phase at 1 uM after 24 hrs; format: functional, cell-based; settings: HCT-116

SMILES | Activity (HCT-116 [1]) | Activity [2] | Activity (HCT-116 [3]) | Activity (HCT-116 [4]) | Activity (P388 [5]) [%] | Activity (K562/4) | Activity (HCT-116 [6]) | Activity [8] | Activity (Calf thymus DNA [9]) | Activity (HCT-116 [10]) | Activity [11] | Activity [12] | Activity (Calf thymus DNA [13]) [nm] | Activity (HCT-116 [14]) | Activity (HCT-116 [15]) | Activity (HCT-116 [16]) | Activity (K562) | Activity [17] | Activity (HCT-116 [18]) | Activity [19] | also measured
CS(=O)(=O)O.Cc1oc2c(O)c3c(c(O)c2c1C(=O)N1CC[C@@H](N)C1)C(=O)c1ccccc1C3=O | Active | Dose-dependent effect | Active | Active | 122 | inactive | Active | Active | Active | Active | inactive | inactive | 9 | Active | Active | Active | inactive | Active | Active | Active | Activity (HCT-116 [7]): Active; Activity (HCT-116 [20]): Active; MTD at 120 h [21]: 50 mg/kg; Activity [22]: Active; Activity (HCT-116 [23]): Active; Activity (PBL): Non-toxic; Activity (HCT-116 [24]): Active; Activity (P388 [25]): 17.3 days; Activity [26]: Active
CS(=O)(=O)O.Cc1oc2c(O)c3c(c(O)c2c1C(=O)N1CC[C@H](N)C1)C(=O)c1ccccc1C3=O | 46% | Dose-dependent effect | 10% | 12% | 214 | inactive | 30% | Active | Active | 17% | inactive | inactive | 9 | 14% | 45% | 33% | inactive | Active | 12% | Active | viability at 1 µM (HCT-116 [7]; HCT-116, 48 h, read-out: Activity): 7%; Activity (HCT-116 [20]): 11%; MTD at 120 h [21]: 30 mg/kg; Activity [22]: Active; Activity (HCT-116 [23]): 13%; Activity (PBL): Non-toxic; viability at 1 µM (HCT-116 [24]; HCT-116, 24 h, read-out: Activity): 54%; Activity (P388 [25]): 6.5 days; Activity [26]: Active

From ChEMBL document CHEMBL3774310, “Discovery of antitumor anthra[2,3-b]furan-3-carboxamides: Optimization of synthesis and evaluation of antitumor properties” (Eur J Med Chem, 2016)
